Results published in patent US20070292908A1, “Method for Detecting Streptococcus Agalactiae Using Alpha-Glucosidase Activity” (BIOMERIEUX, priority 2004, published 2007).
Each block holds one molecule with its values, some of them ahead of it.

How the values were obtained:
Streptococcus agalactiae [1] = test: Number of strains detected as a function of the concentration of α-glucosidase substrate; type: cell-based; conditions: positive when I≧0.6, 8 strains
Source text: The above protocol was repeated, with the exception that the concentration of enzymatic substrate was varied.
Table 2 below gives the number of strains detected (considered to be positive when I≧0.6) as a function of the concentration of substrate.

Streptococcus agalactiae [2] = test: Detection of Streptococcus agalactiae strains on reaction media containing an α-glucosidase enzymatic substrate; type: cell-based; conditions: substrate 0.1 g/l; for intensity (I) of coloration: arbitrary scale 0 to 4
Description: The reaction media were prepared by mixing heart-brain extract (4.84 g/l; Solabia), meat infusion (1.96 g/l; Solabia), biothione (1 g/l; Solabia), biotrypcase (7.2 g/l; Solabia), sodium carbonate (0.3 g/l; VWR), sodium pyruvate (2 g/l; Fluka), HEPES buffer (0.4 g/l; Sigma), lactalbumin peptone (2 g/l; DMV), glucose (1 g/l; Merck), American agar (2 g/l; Sobigel) and European agar (12 g/l; Roko).
The media were then poured into a Petri dish for subsequent inoculation with bacterial strains.
Eight Streptococcus agalactiae strains derived from the applicant's collection, suspended in physiological saline, were inoculated so as to give isolated colonies on each of the media. The dishes were then incubated at 37° C. for 48 hours. The colonies formed are examined visually after 18, 24 and more than 40 hours of incubation. The coloration of these colonies, the growth and also the intensity of this coloration were noted.
The results are given in table 1 below and are expressed: • in terms of growth (G) with the size being indicated in mm, • in terms of intensity (1) of coloration based on an arbitrary scale ranging from 0 to 4, 0 corresponding to an absence of activity and 4 corresponding to the presence of a very intense coloration, • in terms of color (Co) with T=turquoise, R=pink or red, Gr=green, Mg=magenta, • according to the incubation time in hours (T).

[3] = substrate 100 mg/l, incubation 24 h
[4] = substrate 100 mg/l, incubation 48 h
[5] = substrate 200 mg/l, incubation 24 h
[6] = substrate 200 mg/l, incubation 48 h
[7] = substrate 300 mg/l, incubation 24 h
[8] = substrate 300 mg/l, incubation 48 h
[9] = strain 0008200, 18 h incubation
[10] = strain 0008200, 24 h incubation
[11] = strain 0008200, >40 h incubation
[12] = strain 0008206, 18 h incubation
[13] = strain 0008206, 24 h incubation
[14] = strain 0008206, >40 h incubation
[15] = strain 0101060, 18 h incubation
[16] = strain 0101060, 24 h incubation
[17] = strain 0101060, >40 h incubation
[18] = strain 7611003, 18 h incubation
[19] = strain 7611003, 24 h incubation
[20] = strain 7611003, >40 h incubation
[21] = strain 7701031, 18 h incubation
[22] = strain 7701031, 24 h incubation
[23] = strain 7701031, >40 h incubation
[24] = strain 7702055, 18 h incubation
[25] = strain 7702055, 24 h incubation
[26] = strain 7702055, >40 h incubation
[27] = strain 8709013, 18 h incubation
[28] = strain 8709013, 24 h incubation
[29] = strain 8709013, >40 h incubation
[30] = strain 8904053, 18 h incubation
[31] = strain 8904053, 24 h incubation
[32] = strain 8904053, >40 h incubation

number of strains detected (Streptococcus agalactiae [1]; [3]): 1/8
number of strains detected (Streptococcus agalactiae [1]; [4]): 7/8
number of strains detected (Streptococcus agalactiae [1]; [5]): 5/8
number of strains detected (Streptococcus agalactiae [1]; [6]): 8/8
number of strains detected (Streptococcus agalactiae [1]; [7]): 6/8
number of strains detected (Streptococcus agalactiae [1]; [8]): 8/8
intensity (I) of coloration (Streptococcus agalactiae [2]; strain 0008200, 18 h): 0.1
growth (G), size (Streptococcus agalactiae [2]; [9]): 0.7 mm
intensity (I) of coloration (Streptococcus agalactiae [2]; strain 0008200, 24 h): 0.3
growth (G), size (Streptococcus agalactiae [2]; [10]): 0.7 mm
intensity (I) of coloration (Streptococcus agalactiae [2]; strain 0008200, >40 h): 1.7
growth (G), size (Streptococcus agalactiae [2]; [11]): 0.7 mm
intensity (I) of coloration (Streptococcus agalactiae [2]; strain 0008206, 18 h): 0.3
growth (G), size (Streptococcus agalactiae [2]; [12]): 0.7 mm
intensity (I) of coloration (Streptococcus agalactiae [2]; strain 0008206, 24 h): 0.5
growth (G), size (Streptococcus agalactiae [2]; [13]): 0.8 mm
intensity (I) of coloration (Streptococcus agalactiae [2]; strain 0008206, >40 h): 2
growth (G), size (Streptococcus agalactiae [2]; [14]): 1.2 mm
intensity (I) of coloration (Streptococcus agalactiae [2]; strain 0101060, 18 h): 0.5
growth (G), size (Streptococcus agalactiae [2]; [15]): 0.4 mm
intensity (I) of coloration (Streptococcus agalactiae [2]; strain 0101060, 24 h): 0.8
growth (G), size (Streptococcus agalactiae [2]; [16]): 0.5 mm
intensity (I) of coloration (Streptococcus agalactiae [2]; strain 0101060, >40 h): 3
growth (G), size (Streptococcus agalactiae [2]; [17]): 0.7 mm
intensity (I) of coloration (Streptococcus agalactiae [2]; strain 7611003, 18 h): 0.5
growth (G), size (Streptococcus agalactiae [2]; [18]): 1 mm
intensity (I) of coloration (Streptococcus agalactiae [2]; strain 7611003, 24 h): 0.8
growth (G), size (Streptococcus agalactiae [2]; [19]): 1 mm
intensity (I) of coloration (Streptococcus agalactiae [2]; strain 7611003, >40 h): 2
growth (G), size (Streptococcus agalactiae [2]; [20]): 1.3 mm
growth (G), size (Streptococcus agalactiae [2]; [21]): 0.5 mm
growth (G), size (Streptococcus agalactiae [2]; [22]): 0.7 mm
intensity (I) of coloration (Streptococcus agalactiae [2]; strain 7701031, >40 h): 0.5
growth (G), size (Streptococcus agalactiae [2]; [23]): 1.2 mm
growth (G), size (Streptococcus agalactiae [2]; [24]): 0.7 mm
intensity (I) of coloration (Streptococcus agalactiae [2]; strain 7702055, 24 h): 0.3
growth (G), size (Streptococcus agalactiae [2]; [25]): 1 mm
intensity (I) of coloration (Streptococcus agalactiae [2]; strain 7702055, >40 h): 2.3
growth (G), size (Streptococcus agalactiae [2]; [26]): 1.7 mm
growth (G), size (Streptococcus agalactiae [2]; [27]): 0.5 mm
growth (G), size (Streptococcus agalactiae [2]; [28]): 0.5 mm
intensity (I) of coloration (Streptococcus agalactiae [2]; strain 8709013, >40 h): 0.8
growth (G), size (Streptococcus agalactiae [2]; [29]): 0.7 mm
growth (G), size (Streptococcus agalactiae [2]; [30]): 0.7 mm
intensity (I) of coloration (Streptococcus agalactiae [2]; strain 8904053, 24 h): 0.3
growth (G), size (Streptococcus agalactiae [2]; [31]): 0.7 mm
intensity (I) of coloration (Streptococcus agalactiae [2]; strain 8904053, >40 h): 1.7
growth (G), size (Streptococcus agalactiae [2]; [32]): 0.8 mm
Molecule: OC[C@H]1O[C@H](Oc2c[nH]c3cc(Br)ccc23)[C@H](O)[C@@H](O)[C@@H]1O [RedA-alpha-Glu, 6-bromo-3-indolyl-α-D-glucopyranoside]

Molecule: 5-bromo-4-chloro-3-indolyl-α-D-glucopyranoside [X-alpha-Glu]
number of strains detected (Streptococcus agalactiae [1]; [3]): 3/8
number of strains detected (Streptococcus agalactiae [1]; [4]): 7/8
number of strains detected (Streptococcus agalactiae [1]; [5]): 7/8
number of strains detected (Streptococcus agalactiae [1]; [6]): 7/8
number of strains detected (Streptococcus agalactiae [1]; [7]): 7/8
number of strains detected (Streptococcus agalactiae [1]; [8]): 7/8
intensity (I) of coloration (Streptococcus agalactiae [2]; strain 0008200, 18 h): 0.3
growth (G), size (Streptococcus agalactiae [2]; [9]): 0.7 mm
intensity (I) of coloration (Streptococcus agalactiae [2]; strain 0008200, 24 h): 0.6
growth (G), size (Streptococcus agalactiae [2]; [10]): 0.7 mm
intensity (I) of coloration (Streptococcus agalactiae [2]; strain 0008200, >40 h): 2.3
growth (G), size (Streptococcus agalactiae [2]; [11]): 0.8 mm
intensity (I) of coloration (Streptococcus agalactiae [2]; strain 0008206, 18 h): 0.3
growth (G), size (Streptococcus agalactiae [2]; [12]): 0.7 mm
intensity (I) of coloration (Streptococcus agalactiae [2]; strain 0008206, 24 h): 1
growth (G), size (Streptococcus agalactiae [2]; [13]): 0.7 mm
intensity (I) of coloration (Streptococcus agalactiae [2]; strain 0008206, >40 h): 2
growth (G), size (Streptococcus agalactiae [2]; [14]): 0.8 mm
intensity (I) of coloration (Streptococcus agalactiae [2]; strain 0101060, 18 h): 2.7
growth (G), size (Streptococcus agalactiae [2]; [15]): 0.4 mm
intensity (I) of coloration (Streptococcus agalactiae [2]; strain 0101060, 24 h): 3
growth (G), size (Streptococcus agalactiae [2]; [16]): 0.5 mm
intensity (I) of coloration (Streptococcus agalactiae [2]; strain 0101060, >40 h): 4
growth (G), size (Streptococcus agalactiae [2]; [17]): 0.7 mm
intensity (I) of coloration (Streptococcus agalactiae [2]; strain 7611003, 18 h): 2.3
growth (G), size (Streptococcus agalactiae [2]; [18]): 1 mm
intensity (I) of coloration (Streptococcus agalactiae [2]; strain 7611003, 24 h): 2.7
growth (G), size (Streptococcus agalactiae [2]; [19]): 1.2 mm
intensity (I) of coloration (Streptococcus agalactiae [2]; strain 7611003, >40 h): 3
growth (G), size (Streptococcus agalactiae [2]; [20]): 1.5 mm
growth (G), size (Streptococcus agalactiae [2]; [21]): 0.5 mm
growth (G), size (Streptococcus agalactiae [2]; [22]): 0.7 mm
growth (G), size (Streptococcus agalactiae [2]; [23]): 1.2 mm
intensity (I) of coloration (Streptococcus agalactiae [2]; strain 7702055, 18 h): 0.5
growth (G), size (Streptococcus agalactiae [2]; [24]): 0.7 mm
intensity (I) of coloration (Streptococcus agalactiae [2]; strain 7702055, 24 h): 1
growth (G), size (Streptococcus agalactiae [2]; [25]): 1 mm
intensity (I) of coloration (Streptococcus agalactiae [2]; strain 7702055, >40 h): 3
growth (G), size (Streptococcus agalactiae [2]; [26]): 1.7 mm
intensity (I) of coloration (Streptococcus agalactiae [2]; strain 8709013, 18 h): 0.1
growth (G), size (Streptococcus agalactiae [2]; [27]): 0.4 mm
intensity (I) of coloration (Streptococcus agalactiae [2]; strain 8709013, 24 h): 0.6
growth (G), size (Streptococcus agalactiae [2]; [28]): 0.5 mm
intensity (I) of coloration (Streptococcus agalactiae [2]; strain 8709013, >40 h): 2
growth (G), size (Streptococcus agalactiae [2]; [29]): 0.7 mm
intensity (I) of coloration (Streptococcus agalactiae [2]; strain 8904053, 18 h): 0.3
growth (G), size (Streptococcus agalactiae [2]; [30]): 0.7 mm
intensity (I) of coloration (Streptococcus agalactiae [2]; strain 8904053, 24 h): 0.6
growth (G), size (Streptococcus agalactiae [2]; [31]): 0.7 mm
intensity (I) of coloration (Streptococcus agalactiae [2]; strain 8904053, >40 h): 2.3
growth (G), size (Streptococcus agalactiae [2]; [32]): 0.8 mm
